{"source": "the kinase profiling compilation of Christmann-Franck et al. (2016)", "settings_in_all_cases": "compound 10.0 µM", "key": {"PIK3CB (human)": {"target": "PIK3CB (human) (UniProt P42338)"}, "RIPK1 (human)": {"target": "RIPK1 (human) (UniProt Q13546)"}, "DSTYK (human)": {"target": "DSTYK (human) (UniProt Q6XUX3)"}, "STK32B (human)": {"target": "STK32B (human) (UniProt Q9NY57)"}, "PIM3 (human)": {"target": "PIM3 (human) (UniProt Q86V86)"}, "BMPR1B (human)": {"target": "BMPR1B (human) (UniProt O00238)"}, "ITK (human)": {"target": "ITK (human) (UniProt Q08881)"}, "MAPK7 (human)": {"target": "MAPK7 (human) (UniProt Q13164)", "sequence (Q13164 whole entry, looked up)": "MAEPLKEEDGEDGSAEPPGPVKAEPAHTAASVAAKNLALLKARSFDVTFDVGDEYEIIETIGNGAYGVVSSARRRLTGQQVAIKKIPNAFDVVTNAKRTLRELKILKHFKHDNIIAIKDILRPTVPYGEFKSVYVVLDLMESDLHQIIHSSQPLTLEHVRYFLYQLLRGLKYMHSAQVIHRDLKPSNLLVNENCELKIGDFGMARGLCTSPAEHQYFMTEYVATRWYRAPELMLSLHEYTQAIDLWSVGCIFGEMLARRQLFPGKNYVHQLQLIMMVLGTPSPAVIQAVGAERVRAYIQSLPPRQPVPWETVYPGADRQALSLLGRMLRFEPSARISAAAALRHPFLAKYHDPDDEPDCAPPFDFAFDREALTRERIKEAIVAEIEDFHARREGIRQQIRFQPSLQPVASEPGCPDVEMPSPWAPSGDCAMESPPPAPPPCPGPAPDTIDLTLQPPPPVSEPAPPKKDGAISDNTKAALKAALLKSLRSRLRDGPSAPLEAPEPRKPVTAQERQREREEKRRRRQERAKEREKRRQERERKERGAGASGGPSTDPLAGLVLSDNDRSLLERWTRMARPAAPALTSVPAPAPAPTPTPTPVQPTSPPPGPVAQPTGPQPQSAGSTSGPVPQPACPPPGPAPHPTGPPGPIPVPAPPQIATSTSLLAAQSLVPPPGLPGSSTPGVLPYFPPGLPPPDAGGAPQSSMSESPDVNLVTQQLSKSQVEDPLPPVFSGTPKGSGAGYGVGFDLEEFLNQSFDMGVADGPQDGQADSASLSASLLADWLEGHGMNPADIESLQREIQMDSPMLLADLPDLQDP"}, "ULK3 (human)": {"target": "ULK3 (human) (UniProt Q6PHR2)", "sequence (Q6PHR2 whole entry, looked up)": "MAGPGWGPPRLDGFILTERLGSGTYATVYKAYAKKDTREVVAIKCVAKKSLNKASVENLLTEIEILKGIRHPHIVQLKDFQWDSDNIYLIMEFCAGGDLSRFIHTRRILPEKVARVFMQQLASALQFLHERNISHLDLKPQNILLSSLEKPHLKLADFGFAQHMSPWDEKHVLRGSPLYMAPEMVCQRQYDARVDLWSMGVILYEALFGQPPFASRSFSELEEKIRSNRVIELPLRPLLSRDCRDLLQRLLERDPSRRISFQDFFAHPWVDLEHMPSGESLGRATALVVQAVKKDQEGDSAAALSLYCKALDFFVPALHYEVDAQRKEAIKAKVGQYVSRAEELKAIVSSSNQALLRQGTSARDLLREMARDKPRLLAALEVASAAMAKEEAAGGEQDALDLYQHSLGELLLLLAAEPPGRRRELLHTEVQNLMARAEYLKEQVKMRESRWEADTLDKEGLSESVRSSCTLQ"}, "MAST1 (human)": {"target": "MAST1 (human) (UniProt Q9Y2H9)"}, "STK17B (human)": {"target": "STK17B (human) (UniProt O94768)"}, "PRKCD (human)": {"target": "PRKCD (human) (UniProt Q05655)"}, "STK33 (human)": {"target": "STK33 (human) (UniProt Q9BYT3)"}, "PLK4 (human)": {"target": "PLK4 (human) (UniProt O00444)"}, "RPS6KA6 KD2 (human)": {"target": "RPS6KA6 KD2 (human) (UniProt Q9UK32)"}, "PIM2 (human)": {"target": "PIM2 (human) (UniProt Q9P1W9)"}, "[1]": {"system": "KIT (human), P10721 [V559D/T670I]", "sequence (P10721 whole entry V559D/T670I, looked up)": "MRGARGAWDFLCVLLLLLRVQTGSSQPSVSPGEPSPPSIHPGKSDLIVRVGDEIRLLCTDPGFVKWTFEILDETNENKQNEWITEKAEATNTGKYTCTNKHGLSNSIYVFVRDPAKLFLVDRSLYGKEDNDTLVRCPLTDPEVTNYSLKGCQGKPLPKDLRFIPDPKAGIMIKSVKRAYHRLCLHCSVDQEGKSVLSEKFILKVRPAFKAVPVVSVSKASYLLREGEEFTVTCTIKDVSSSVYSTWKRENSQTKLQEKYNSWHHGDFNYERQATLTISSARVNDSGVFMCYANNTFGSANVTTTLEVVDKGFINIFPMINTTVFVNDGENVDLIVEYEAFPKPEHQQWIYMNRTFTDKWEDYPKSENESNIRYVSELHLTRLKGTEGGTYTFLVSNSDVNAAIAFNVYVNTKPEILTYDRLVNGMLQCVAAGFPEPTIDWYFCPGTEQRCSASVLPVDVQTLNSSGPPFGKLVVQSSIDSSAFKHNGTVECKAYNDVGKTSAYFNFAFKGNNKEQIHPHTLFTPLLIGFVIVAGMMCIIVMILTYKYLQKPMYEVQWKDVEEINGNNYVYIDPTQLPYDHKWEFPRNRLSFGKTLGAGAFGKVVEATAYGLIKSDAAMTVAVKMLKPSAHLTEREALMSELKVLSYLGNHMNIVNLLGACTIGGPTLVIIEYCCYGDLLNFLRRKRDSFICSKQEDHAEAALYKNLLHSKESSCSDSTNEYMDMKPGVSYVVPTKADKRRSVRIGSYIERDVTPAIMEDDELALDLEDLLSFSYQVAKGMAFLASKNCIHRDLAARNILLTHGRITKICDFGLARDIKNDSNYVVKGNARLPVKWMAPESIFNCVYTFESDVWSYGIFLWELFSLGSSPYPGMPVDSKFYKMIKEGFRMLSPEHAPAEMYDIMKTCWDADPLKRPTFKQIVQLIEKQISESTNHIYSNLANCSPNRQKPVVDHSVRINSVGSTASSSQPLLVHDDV"}, "VRK2 (human)": {"target": "VRK2 (human) (UniProt Q86Y07)"}, "STK38L (human)": {"target": "STK38L (human) (UniProt Q9Y2H1)", "sequence (Q9Y2H1 whole entry, looked up)": "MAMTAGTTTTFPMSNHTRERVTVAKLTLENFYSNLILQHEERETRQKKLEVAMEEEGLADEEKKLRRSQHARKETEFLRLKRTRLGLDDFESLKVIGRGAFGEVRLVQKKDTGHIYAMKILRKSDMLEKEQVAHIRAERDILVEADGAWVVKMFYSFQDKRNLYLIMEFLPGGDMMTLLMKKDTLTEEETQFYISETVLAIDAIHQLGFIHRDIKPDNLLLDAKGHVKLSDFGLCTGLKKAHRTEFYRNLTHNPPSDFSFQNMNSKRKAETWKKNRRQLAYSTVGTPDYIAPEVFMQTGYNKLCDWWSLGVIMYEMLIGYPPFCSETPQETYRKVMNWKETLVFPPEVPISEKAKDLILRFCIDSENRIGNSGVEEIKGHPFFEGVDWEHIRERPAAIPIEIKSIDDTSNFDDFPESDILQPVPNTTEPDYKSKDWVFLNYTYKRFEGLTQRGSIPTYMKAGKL"}, "FLT4 (human)": {"target": "FLT4 (human) (UniProt P35916)"}, "FGFR1 (human)": {"target": "FGFR1 (human) (UniProt P11362)"}, "EPHA1 (human)": {"target": "EPHA1 (human) (UniProt P21709)"}, "PKN2 (human)": {"target": "PKN2 (human) (UniProt Q16513)"}, "MTOR (human)": {"target": "MTOR (human) (UniProt P42345)"}, "CDK5 (human)": {"target": "CDK5 (human) (UniProt Q00535)"}, "SRMS (human)": {"target": "SRMS (human) (UniProt Q9H3Y6)"}, "RPS6KA5 KD1 (human)": {"target": "RPS6KA5 KD1 (human) (UniProt O75582)"}, "MINK1 (human)": {"target": "MINK1 (human) (UniProt Q8N4C8)"}, "DAPK1 (human)": {"target": "DAPK1 (human) (UniProt P53355)"}, "PRKCH (human)": {"target": "PRKCH (human) (UniProt P24723)", "sequence (P24723 whole entry, looked up)": "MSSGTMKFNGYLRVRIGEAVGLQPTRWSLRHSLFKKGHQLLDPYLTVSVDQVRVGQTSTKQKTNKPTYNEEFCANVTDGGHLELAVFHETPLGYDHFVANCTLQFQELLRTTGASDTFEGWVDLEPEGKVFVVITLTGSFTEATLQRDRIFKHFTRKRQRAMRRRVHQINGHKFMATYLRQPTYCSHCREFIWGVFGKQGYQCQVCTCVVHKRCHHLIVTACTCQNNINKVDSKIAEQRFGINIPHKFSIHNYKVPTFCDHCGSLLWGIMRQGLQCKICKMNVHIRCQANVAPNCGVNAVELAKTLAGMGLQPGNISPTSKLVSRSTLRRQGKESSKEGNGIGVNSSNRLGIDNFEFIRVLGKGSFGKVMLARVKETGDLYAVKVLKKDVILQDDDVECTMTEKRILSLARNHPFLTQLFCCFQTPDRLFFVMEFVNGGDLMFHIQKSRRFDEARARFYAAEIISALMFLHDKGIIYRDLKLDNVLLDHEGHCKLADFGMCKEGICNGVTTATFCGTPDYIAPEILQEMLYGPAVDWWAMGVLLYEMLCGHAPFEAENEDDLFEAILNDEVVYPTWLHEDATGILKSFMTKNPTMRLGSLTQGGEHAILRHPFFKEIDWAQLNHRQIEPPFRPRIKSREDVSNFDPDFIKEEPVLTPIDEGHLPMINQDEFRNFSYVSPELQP"}, "[2]": {"target": "JAK1 JH1 catalytic (human) (UniProt P23458)"}, "ULK2 (human)": {"target": "ULK2 (human) (UniProt Q8IYT8)"}, "MAK (human)": {"target": "MAK (human) (UniProt P20794)"}, "[3]": {"system": "MET (human), P08581 [M1250T]"}, "PRKCE (human)": {"target": "PRKCE (human) (UniProt Q02156)"}, "[4]": {"system": "KIT (human), P10721 [V559D/V654A]", "sequence (P10721 whole entry V559D/V654A, looked up)": "as the sequence (P10721 whole entry V559D/T670I, looked up) above, with V654A, I670T counted along it"}, "EIF2AK2 (human)": {"target": "EIF2AK2 (human) (UniProt P19525)"}, "RPS6KA6 KD1 (human)": {"target": "RPS6KA6 KD1 (human) (UniProt Q9UK32)"}, "CDC42BPG (human)": {"target": "CDC42BPG (human) (UniProt Q6DT37)", "sequence (Q6DT37 whole entry, looked up)": "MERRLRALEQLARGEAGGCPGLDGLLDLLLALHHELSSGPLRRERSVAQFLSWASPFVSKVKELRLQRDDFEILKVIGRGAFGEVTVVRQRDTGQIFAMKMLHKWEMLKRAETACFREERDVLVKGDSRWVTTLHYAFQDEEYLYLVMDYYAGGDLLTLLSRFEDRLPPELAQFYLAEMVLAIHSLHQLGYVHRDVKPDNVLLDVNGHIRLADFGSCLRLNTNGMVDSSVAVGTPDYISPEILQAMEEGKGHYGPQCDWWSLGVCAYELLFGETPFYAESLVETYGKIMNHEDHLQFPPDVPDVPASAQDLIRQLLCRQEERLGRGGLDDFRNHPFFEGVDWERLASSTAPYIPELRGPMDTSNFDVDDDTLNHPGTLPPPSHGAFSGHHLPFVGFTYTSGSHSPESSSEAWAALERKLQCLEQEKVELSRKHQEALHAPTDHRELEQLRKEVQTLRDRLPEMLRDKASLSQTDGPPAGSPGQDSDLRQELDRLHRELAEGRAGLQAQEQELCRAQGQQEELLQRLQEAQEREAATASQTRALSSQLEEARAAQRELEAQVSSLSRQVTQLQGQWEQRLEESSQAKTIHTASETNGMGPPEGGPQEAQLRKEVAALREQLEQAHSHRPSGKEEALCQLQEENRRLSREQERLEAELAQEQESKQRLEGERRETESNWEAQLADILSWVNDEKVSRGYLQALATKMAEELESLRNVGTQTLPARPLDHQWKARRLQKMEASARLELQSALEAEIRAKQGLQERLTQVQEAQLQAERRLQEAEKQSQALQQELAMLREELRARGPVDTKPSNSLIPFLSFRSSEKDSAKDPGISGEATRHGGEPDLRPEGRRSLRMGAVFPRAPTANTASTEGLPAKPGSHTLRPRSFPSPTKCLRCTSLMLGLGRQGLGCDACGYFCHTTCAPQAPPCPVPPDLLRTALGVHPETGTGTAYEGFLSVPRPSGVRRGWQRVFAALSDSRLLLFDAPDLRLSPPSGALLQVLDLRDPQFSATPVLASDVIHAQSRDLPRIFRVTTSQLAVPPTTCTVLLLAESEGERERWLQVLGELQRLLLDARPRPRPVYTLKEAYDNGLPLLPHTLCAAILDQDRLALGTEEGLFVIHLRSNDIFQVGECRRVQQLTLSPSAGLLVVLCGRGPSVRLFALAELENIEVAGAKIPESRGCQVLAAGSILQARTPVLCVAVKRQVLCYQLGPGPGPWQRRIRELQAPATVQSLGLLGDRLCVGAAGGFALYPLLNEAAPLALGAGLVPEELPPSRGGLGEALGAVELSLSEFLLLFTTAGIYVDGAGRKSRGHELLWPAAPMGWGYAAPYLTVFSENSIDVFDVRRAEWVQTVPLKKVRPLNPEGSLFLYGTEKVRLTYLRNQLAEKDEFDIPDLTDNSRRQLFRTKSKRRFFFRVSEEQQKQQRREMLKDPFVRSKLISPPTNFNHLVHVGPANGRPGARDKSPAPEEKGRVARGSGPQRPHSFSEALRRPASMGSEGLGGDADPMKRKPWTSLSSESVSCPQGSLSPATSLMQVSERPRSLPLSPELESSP"}, "DAPK2 (human)": {"target": "DAPK2 (human) (UniProt Q9UIK4)"}, "RPS6KA3 KD1 (human)": {"target": "RPS6KA3 KD1 (human) (UniProt P51812)"}}}
{"compound": "CNC(=O)c1cc(Oc2ccc(NC(=O)Nc3ccc(Cl)c(C(F)(F)F)c3)cc2)cc[n+]1[O-]", "values": [{"measurement": "per cent of control", "setting": "PIK3CB (human)", "value": 93, "unit": "%"}, {"measurement": "per cent of control", "setting": "RIPK1 (human)", "value": 87, "unit": "%"}, {"measurement": "per cent of control", "setting": "DSTYK (human)", "value": 68, "unit": "%"}, {"measurement": "per cent of control", "setting": "STK32B (human)", "value": 100, "unit": "%"}, {"measurement": "per cent of control", "setting": "PIM3 (human)", "value": 100, "unit": "%"}, {"measurement": "per cent of control", "setting": "BMPR1B (human)", "value": 81, "unit": "%"}, {"measurement": "per cent of control", "setting": "ITK (human)", "value": 100, "unit": "%"}, {"measurement": "per cent of control", "setting": "MAPK7 (human)", "value": 65, "unit": "%"}, {"measurement": "per cent of control", "setting": "ULK3 (human)", "value": 82, "unit": "%"}, {"measurement": "per cent of control", "setting": "MAST1 (human)", "value": 100, "unit": "%"}, {"measurement": "per cent of control", "setting": "STK17B (human)", "value": 62, "unit": "%"}, {"measurement": "per cent of control", "setting": "PRKCD (human)", "value": 100, "unit": "%"}, {"measurement": "per cent of control", "setting": "STK33 (human)", "value": 6.9, "unit": "%"}, {"measurement": "per cent of control", "setting": "PLK4 (human)", "value": 5.2, "unit": "%"}, {"measurement": "per cent of control", "setting": "RPS6KA6 KD2 (human)", "value": 6.4, "unit": "%"}, {"measurement": "per cent of control", "setting": "PIM2 (human)", "value": 100, "unit": "%"}, {"measurement": "per cent of control", "setting": "[1]", "value": 0, "unit": "%"}, {"measurement": "per cent of control", "setting": "VRK2 (human)", "value": 100, "unit": "%"}, {"measurement": "per cent of control", "setting": "STK38L (human)", "value": 100, "unit": "%"}, {"measurement": "per cent of control", "setting": "FLT4 (human)", "value": 0, "unit": "%"}, {"measurement": "per cent of control", "setting": "FGFR1 (human)", "value": 9.7, "unit": "%"}, {"measurement": "per cent of control", "setting": "EPHA1 (human)", "value": 18, "unit": "%"}, {"measurement": "per cent of control", "setting": "PKN2 (human)", "value": 91, "unit": "%"}, {"measurement": "per cent of control", "setting": "MTOR (human)", "value": 100, "unit": "%"}, {"measurement": "per cent of control", "setting": "CDK5 (human)", "value": 12, "unit": "%"}, {"measurement": "per cent of control", "setting": "SRMS (human)", "value": 10, "unit": "%"}, {"measurement": "per cent of control", "setting": "RPS6KA5 KD1 (human)", "value": 59, "unit": "%"}, {"measurement": "per cent of control", "setting": "MINK1 (human)", "value": 2.4, "unit": "%"}, {"measurement": "per cent of control", "setting": "DAPK1 (human)", "value": 85, "unit": "%"}, {"measurement": "per cent of control", "setting": "PRKCH (human)", "value": 84, "unit": "%"}, {"measurement": "per cent of control", "setting": "[2]", "value": 50, "unit": "%"}, {"measurement": "per cent of control", "setting": "ULK2 (human)", "value": 75, "unit": "%"}, {"measurement": "per cent of control", "setting": "MAK (human)", "value": 35, "unit": "%"}, {"measurement": "per cent of control", "setting": "[3]", "value": 16, "unit": "%"}, {"measurement": "per cent of control", "setting": "PRKCE (human)", "value": 100, "unit": "%"}, {"measurement": "per cent of control", "setting": "[4]", "value": 0.45, "unit": "%"}, {"measurement": "per cent of control", "setting": "EIF2AK2 (human)", "value": 58, "unit": "%"}, {"measurement": "per cent of control", "setting": "RPS6KA6 KD1 (human)", "value": 97, "unit": "%"}, {"measurement": "per cent of control", "setting": "CDC42BPG (human)", "value": 86, "unit": "%"}, {"measurement": "per cent of control", "setting": "DAPK2 (human)", "value": 100, "unit": "%"}, {"measurement": "per cent of control", "setting": "RPS6KA3 KD1 (human)", "value": 52, "unit": "%"}]}
{"compound": "CNC(=O)c1cc(Oc2ccc(NC(=O)Nc3ccc(Cl)c(C(F)(F)F)c3)cc2)ccn1", "values": [{"measurement": "per cent of control", "setting": "PIK3CB (human)", "value": 100, "unit": "%"}, {"measurement": "per cent of control", "setting": "RIPK1 (human)", "value": 88, "unit": "%"}, {"measurement": "per cent of control", "setting": "DSTYK (human)", "value": 100, "unit": "%"}, {"measurement": "per cent of control", "setting": "STK32B (human)", "value": 100, "unit": "%"}, {"measurement": "per cent of control", "setting": "PIM3 (human)", "value": 100, "unit": "%"}, {"measurement": "per cent of control", "setting": "BMPR1B (human)", "value": 93, "unit": "%"}, {"measurement": "per cent of control", "setting": "ITK (human)", "value": 100, "unit": "%"}, {"measurement": "per cent of control", "setting": "MAPK7 (human)", "value": 81, "unit": "%"}, {"measurement": "per cent of control", "setting": "ULK3 (human)", "value": 100, "unit": "%"}, {"measurement": "per cent of control", "setting": "MAST1 (human)", "value": 100, "unit": "%"}, {"measurement": "per cent of control", "setting": "STK17B (human)", "value": 66, "unit": "%"}, {"measurement": "per cent of control", "setting": "PRKCD (human)", "value": 100, "unit": "%"}, {"measurement": "per cent of control", "setting": "STK33 (human)", "value": 6, "unit": "%"}, {"measurement": "per cent of control", "setting": "PLK4 (human)", "value": 46, "unit": "%"}, {"measurement": "per cent of control", "setting": "RPS6KA6 KD2 (human)", "value": 16, "unit": "%"}, {"measurement": "per cent of control", "setting": "PIM2 (human)", "value": 89, "unit": "%"}, {"measurement": "per cent of control", "setting": "[1]", "value": 0, "unit": "%"}, {"measurement": "per cent of control", "setting": "VRK2 (human)", "value": 100, "unit": "%"}, {"measurement": "per cent of control", "setting": "STK38L (human)", "value": 95, "unit": "%"}, {"measurement": "per cent of control", "setting": "FLT4 (human)", "value": 0, "unit": "%"}, {"measurement": "per cent of control", "setting": "FGFR1 (human)", "value": 3.4, "unit": "%"}, {"measurement": "per cent of control", "setting": "EPHA1 (human)", "value": 11, "unit": "%"}, {"measurement": "per cent of control", "setting": "PKN2 (human)", "value": 100, "unit": "%"}, {"measurement": "per cent of control", "setting": "MTOR (human)", "value": 100, "unit": "%"}, {"measurement": "per cent of control", "setting": "CDK5 (human)", "value": 22, "unit": "%"}, {"measurement": "per cent of control", "setting": "SRMS (human)", "value": 96, "unit": "%"}, {"measurement": "per cent of control", "setting": "RPS6KA5 KD1 (human)", "value": 77, "unit": "%"}, {"measurement": "per cent of control", "setting": "MINK1 (human)", "value": 80, "unit": "%"}, {"measurement": "per cent of control", "setting": "DAPK1 (human)", "value": 95, "unit": "%"}, {"measurement": "per cent of control", "setting": "PRKCH (human)", "value": 89, "unit": "%"}, {"measurement": "per cent of control", "setting": "[2]", "value": 42, "unit": "%"}, {"measurement": "per cent of control", "setting": "ULK2 (human)", "value": 94, "unit": "%"}, {"measurement": "per cent of control", "setting": "MAK (human)", "value": 38, "unit": "%"}, {"measurement": "per cent of control", "setting": "[3]", "value": 86, "unit": "%"}, {"measurement": "per cent of control", "setting": "PRKCE (human)", "value": 100, "unit": "%"}, {"measurement": "per cent of control", "setting": "[4]", "value": 0.45, "unit": "%"}, {"measurement": "per cent of control", "setting": "EIF2AK2 (human)", "value": 74, "unit": "%"}, {"measurement": "per cent of control", "setting": "RPS6KA6 KD1 (human)", "value": 100, "unit": "%"}, {"measurement": "per cent of control", "setting": "CDC42BPG (human)", "value": 84, "unit": "%"}, {"measurement": "per cent of control", "setting": "DAPK2 (human)", "value": 100, "unit": "%"}, {"measurement": "per cent of control", "setting": "RPS6KA3 KD1 (human)", "value": 99, "unit": "%"}]}
